Laboratory results from PubChem BioAssay AID330 (DTP/NCI, 2004).
Values joined by “and” are separate entries in the source; they are usually repeats but may differ in a detail not shown here. Equal values may be shown once. Inconclusive results and toxic doses are left out.

System: P388 leukemia ip, CD2F1 mice, survival T/C
Experiment: NCI In Vivo Anticancer Drug Screen. Data for tumor model P388 Leukemia (intraperitoneal) in CD2F1 (CDF1) mice
Settings: endpoint: median survival time, higher = longer survival
How it was run: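 Mice carrying the transplanted tumor received test compound or vehicle. Survival was recorded in each group, and the value is the treated-group measurement divided by that of the vehicle-treated control group.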

[1] = dose: 50.0 mg/kg/injection, schedule: Q01DX005 (ip), vehicle: water
[2] = dose: 50.0 mg/kg/injection, schedule: Q01DX009 (ip), vehicle: saline with Tween-80
[3] = dose: 100.0 mg/kg/injection, schedule: Q01DX009 (ip), vehicle: saline with Tween-80
[4] = dose: 200.0 mg/kg/injection, schedule: Q01DX009 (ip), vehicle: saline with Tween-80
[5] = dose: 50.0 mg/kg/injection, schedule: Q01DX005 (ip), vehicle: saline with Tween-80
[6] = dose: 100.0 mg/kg/injection, schedule: Q01DX005 (ip), vehicle: saline with Tween-80
[7] = dose: 12.5 mg/kg/injection, schedule: Q01DX009 (ip), vehicle: saline with Tween-80
[8] = dose: 25.0 mg/kg/injection, schedule: Q01DX009 (ip), vehicle: saline with Tween-80
[9] = dose: 50.0 mg/kg/injection, schedule: Q01DX009 (ip), vehicle: Klucel (hydroxypropylcellulose) (HPC)
[10] = dose: 100.0 mg/kg/injection, schedule: Q01DX009 (ip), vehicle: Klucel (hydroxypropylcellulose) (HPC)
[11] = dose: 200.0 mg/kg/injection, schedule: Q01DX009 (ip), vehicle: Klucel (hydroxypropylcellulose) (HPC)

For `O=NN(CCCl)C(=O)NCCO`, the T/C (dose: 0.78 mg/kg/injection, schedule: Q01DX005 (ip), vehicle: water) was 96 % of control, the T/C (dose: 3.12 mg/kg/injection, schedule: Q01DX005 (ip), vehicle: water) was 104 % of control and the T/C (dose: 3.13 mg/kg/injection, schedule: Q01DX005 (ip), vehicle: water) was 250 % of control. For the same molecule, the T/C (dose: 12.5 mg/kg/injection, schedule: Q01DX005 (ip), vehicle: water) was 116 % of control, the T/C (dose: 25.0 mg/kg/injection, schedule: Q01DX005 (ip), vehicle: water) was 150 % of control and the T/C [1] was 218 % of control.
In the case of `COc1ccc(Cl)cc1NC(=O)NNC(=O)C(=O)NC1CC1`, the T/C [2] is reported as 100 % of control, the T/C [3] is reported as 97 % of control and the T/C [4] is reported as 102 % of control.
`CC(=O)OCc1nc2ncnc(N)c2[nH]1` was tested, and the T/C (dose: 12.5 mg/kg/injection, schedule: Q01DX005 (ip), vehicle: distilled water + Tween-80) was 99 % of control, the T/C (dose: 25.0 mg/kg/injection, schedule: Q01DX005 (ip), vehicle: distilled water + Tween-80) was 103 % of control and the T/C (dose: 50.0 mg/kg/injection, schedule: Q01DX005 (ip), vehicle: distilled water + Tween-80) was 108 % of control. For the same molecule, the T/C (dose: 100.0 mg/kg/injection, schedule: Q01DX005 (ip), vehicle: distilled water + Tween-80) was 97 % of control and the T/C (dose: 200.0 mg/kg/injection, schedule: Q01DX005 (ip), vehicle: distilled water + Tween-80) was 97 % of control.
For `CC(C)(C)OC(OC1(C)COC1=O)C1(C)CO1` (stereo unspecified), the T/C (dose: 50.0 mg/kg/injection, schedule: Q01DX005 (ip), vehicle: saline) was 87 % of control, the T/C [1] was 103 % of control and the T/C (dose: 100.0 mg/kg/injection, schedule: Q01DX005 (ip), vehicle: saline) was 86 % of control. For the same molecule, the T/C (dose: 100.0 mg/kg/injection, schedule: Q01DX005 (ip), vehicle: water) was 105 % of control, the T/C (dose: 200.0 mg/kg/injection, schedule: Q01DX005 (ip), vehicle: saline) was 97 % of control and the T/C (dose: 200.0 mg/kg/injection, schedule: Q01DX005 (ip), vehicle: water) was 90 % of control.
For `CN(C)c1ccc2c(c1)C(=O)N(OS(C)(=O)=O)C2=O`, the T/C (dose: 25.0 mg/kg/injection, schedule: Q01DX005 (ip), vehicle: saline with Tween-80) was 111 % of control, the T/C [5] was 108 % of control and 117 % of control and the T/C [6] was 106 % of control.
With `O=C1Nc2ccccc2C1NC(=S)Nc1ccc(Br)cc1` (stereo unspecified) the T/C (dose: 60.0 mg/kg/injection, schedule: Q01DX005 (ip), vehicle: saline with Tween-80) was 91 % of control, the T/C (dose: 120.0 mg/kg/injection, schedule: Q01DX005 (ip), vehicle: saline with Tween-80) was 94 % of control and the T/C (dose: 240.0 mg/kg/injection, schedule: Q01DX005 (ip), vehicle: saline with Tween-80) was 88 % of control.
For `O=C1C=C(c2ccccc2)C(c2ccccc2)C1` (stereo unspecified), the T/C [2] was 89 % of control, the T/C [3] was 93 % of control and the T/C [4] was 93 % of control. The T/C (dose: 400.0 mg/kg/injection, schedule: Q01DX009 (ip), vehicle: saline with Tween-80) was 93 % of control.
`c1ccc(-c2cc3ccccc3[nH]2)cc1` was tested, and the T/C [2] was 90 % of control, the T/C [3] was 104 % of control and the T/C [4] was 102 % of control.
In the case of `Nc1ccc2c(c1)CN1C(=O)c3ccccc3C1=N2`, the T/C (dose: 6.25 mg/kg/injection, schedule: Q01DX009 (ip), vehicle: saline with Tween-80) is reported as 100 % of control, the T/C [7] is reported as 93 % of control and the T/C (dose: 22.2 mg/kg/injection, schedule: Q01DX009 (ip), vehicle: saline with Tween-80) is reported as 111 % of control. The T/C [8] was 96 % of control, the T/C (dose: 25.0 mg/kg/injection, schedule: Q01DX009 (ip), vehicle: saline) was 91 % of control and the T/C (dose: 30.0 mg/kg/injection, schedule: Q01DX009 (ip), vehicle: saline with Tween-80) was 104 % of control. The T/C (dose: 33.4 mg/kg/injection, schedule: Q01DX009 (oral), vehicle: saline with Tween-80) was 97 % of control, the T/C (dose: 40.0 mg/kg/injection, schedule: Q01DX009 (ip), vehicle: saline with Tween-80) was 90 % of control and the T/C (dose: 50.0 mg/kg/injection, schedule: Q01DX009 (ip), vehicle: saline) was 161 % of control. The T/C (dose: 50.0 mg/kg/injection, schedule: Q01DX009 (oral), vehicle: saline with Tween-80) was 108 % of control, the T/C (dose: 60.0 mg/kg/injection, schedule: Q01DX009 (ip), vehicle: saline with Tween-80) was 119 % of control and the T/C (dose: 75.0 mg/kg/injection, schedule: Q01DX009 (oral), vehicle: saline with Tween-80) was 108 % of control. For the same molecule, the T/C [3] was 100 % of control and 93 % of control, the T/C (dose: 112.4 mg/kg/injection, schedule: Q01DX009 (ip), vehicle: saline with Tween-80) was 121 % of control and the T/C (dose: 112.4 mg/kg/injection, schedule: Q01DX009 (oral), vehicle: saline with Tween-80) was 117 % of control. The T/C (dose: 168.5 mg/kg/injection, schedule: Q01DX009 (oral), vehicle: saline with Tween-80) was 108 % of control.
`CCC1CCCCN1C(=S)N/N=C(\C)c1ccccn1` (stereo unspecified) was tested, and the T/C (dose: 12.5 mg/kg/injection, schedule: Q04DX003 (ip), vehicle: saline with Tween-80) was 106 % of control, the T/C (dose: 25.0 mg/kg/injection, schedule: Q04DX003 (ip), vehicle: saline with Tween-80) was 108 % of control and 115 % of control and the T/C (dose: 50.0 mg/kg/injection, schedule: Q04DX003 (ip), vehicle: saline with Tween-80) was 115 % of control.
For `O=C(O)Cn1ccnc1[N+](=O)[O-]`, the T/C (dose: 12.5 mg/kg/injection, schedule: Q01DX009 (ip), vehicle: distilled water + Tween-80) was 100 % of control, the T/C (dose: 25.0 mg/kg/injection, schedule: Q01DX009 (ip), vehicle: distilled water + Tween-80) was 100 % of control and the T/C (dose: 50.0 mg/kg/injection, schedule: Q01DX009 (ip), vehicle: distilled water + Tween-80) was 118 % of control. For the same molecule, the T/C (dose: 100.0 mg/kg/injection, schedule: Q01DX009 (ip), vehicle: distilled water + Tween-80) was 90 % of control and the T/C (dose: 200.0 mg/kg/injection, schedule: Q01DX009 (ip), vehicle: distilled water + Tween-80) was 109 % of control.
In the case of `COC(=O)C1=C/N(C)CCC/C(C(N)=O)=C\1`, the T/C (dose: 50.0 mg/kg/injection, schedule: Q01DX005 (ip), vehicle: Klucel (hydroxypropylcellulose) (HPC)) is reported as 89 % of control, the T/C (dose: 100.0 mg/kg/injection, schedule: Q01DX005 (ip), vehicle: Klucel (hydroxypropylcellulose) (HPC)) is reported as 102 % of control and the T/C (dose: 200.0 mg/kg/injection, schedule: Q01DX005 (ip), vehicle: Klucel (hydroxypropylcellulose) (HPC)) is reported as 94 % of control.
With `CC(C)C(NC(=O)C(C)N(C)C)C(=O)N1CCC2Oc3ccc(cc3)/C=C\NC(=O)C(Cc3ccccc3)NC(=O)C21` (stereo unspecified) the T/C (dose: 100.0 mg/kg/injection, schedule: Q04DX003 (ip), vehicle: saline with Tween-80) was 97 % of control, the T/C (dose: 200.0 mg/kg/injection, schedule: Q04DX003 (ip), vehicle: saline with Tween-80) was 95 % of control and the T/C (dose: 400.0 mg/kg/injection, schedule: Q04DX003 (ip), vehicle: saline with Tween-80) was 96 % of control.
For `COc1ccc2c(c1[N+](=O)[O-])CCCCC2=O`, the T/C (dose: 100.0 mg/kg/injection, schedule: Q01DX009 (sc), vehicle: olive oil, sesame oil, peanut oil) was 104 % of control, the T/C (dose: 200.0 mg/kg/injection, schedule: Q01DX009 (sc), vehicle: olive oil, sesame oil, peanut oil) was 95 % of control and the T/C (dose: 400.0 mg/kg/injection, schedule: Q01DX009 (sc), vehicle: olive oil, sesame oil, peanut oil) was 107 % of control.
For `CCN(CC)Cc1cc(N=Nc2ccc(-c3ccc(N)c(OC)c3)cc2OC)c2ccccc2c1O`, the T/C [9] was 92 % of control, the T/C [10] was 99 % of control and the T/C [11] was 93 % of control.
For `COc1cccc(OC)c1[N+](=O)[O-]`, the T/C [2] was 87 % of control, the T/C [3] was 97 % of control and the T/C [4] was 106 % of control.
For `CCCCOc1cccc2c1C(=O)c1c(O)c3c(c(O)c1C2=O)C[C@@](O)(C(C)=O)C[C@@H]3OC1CC(N)C(O)C(C)O1` (stereo partly specified), the T/C (dose: 3.13 mg/kg/injection, schedule: Q04DX003 (ip), vehicle: water) was 117 % of control and 120 % of control, the T/C (dose: 6.25 mg/kg/injection, schedule: Q04DX003 (ip), vehicle: water) was 113 % of control and 117 % of control and the T/C (dose: 12.5 mg/kg/injection, schedule: Q04DX003 (ip), vehicle: water) was 115 % of control. For the same molecule, the T/C (dose: 50.0 mg/kg/injection, schedule: Q04DX003 (ip), vehicle: water) was 89 % of control and 90 % of control.
`O=C1Nc2ccccc2/C1=N/N=C/c1ccccc1Cl` was tested, and the T/C [9] was 99 % of control and 88 % of control, the T/C [10] was 86 % of control and 97 % of control and the T/C [11] was 96 % of control.
With `CSc1ncnc2c1ncn2C(SC)C(OC(C)=O)C(OC(C)=O)C(OC(C)=O)C(COC(C)=O)OC(C)=O` (stereo unspecified) the T/C [5] was 96 % of control, the T/C [6] was 97 % of control and the T/C (dose: 200.0 mg/kg/injection, schedule: Q01DX005 (ip), vehicle: saline with Tween-80) was 102 % of control.
For `COc1ccc(C(C)(C)CC(C)(C)C)cc1`, the T/C [7] was 101 % of control, the T/C [8] was 104 % of control and the T/C [2] was 104 % of control. The T/C [3] was 109 % of control.
